Results published in patent publication US9370503B1, “Compounds for treating ocular diseases” (priority 2015, dated 2016).

Assays:
[1] = test system: HUVECs; assay: MTT assay, proliferation/cytotoxicity in HUVECs; format: cell-based, human; settings: 72 hours
Method: (§1) ARPE-19 cells were grown in DMEM/F12 medium supplemented with 10% FBS, 100 units/ml penicillin G, and 100 μg/ml streptomycin sulfate. HUVECs were grown in vascular cell basal medium supplemented with endothelial cell growth kit. Cells were incubated in a humidified incubator at 37° C. under 5% CO2 and 95% air.
(§2) MTT assay was used to measure the viability of ARPE-19 cells and HUVECs. 2×10^5 ARPE-19 cells or 5×10^4 HUVECs were seeded in 96-well plates (100 μl/well) and allowed to grow overnight. Negative control was prepared by adding 100 μl medium without cells. The cells were then treated with fresh medium with a compound of Formula (II) (“(II)”) (0.03, 0.1, 0.3, 1, 3 and 10 μg/ml) and/or oxidants (NaIO3, H2O2, t-BHP and NaN3) for 12, 24, or 72 hours (200 μl/well). The vehicle control group was treated with vehicle. 20 μl MTT (5 mg/ml) was added to wells, and incubated for another 4 h. After incubation, the medium was discarded and 100 μl DMSO was added to solubilize formazan produced from MTT by the viable cells. Absorbance was measured at 570 nm using a microplate reader (Bio-Rad Laboratories, Inc., CA). Cells viability was calculated according to the following formula: Viability of cells (%)=(absorbance in tested sample−absorbance in negative control)/(absorbance in vehicle control−absorbance in negative control)×100%.

[2] = test system: laser induced AMD rat model; assay: Laser induced AMD rat model, CNV area by fluorescein angiography; format: in vivo; settings: (II) instillation, laser rupture of Bruch's membrane, vs control about 2.5 mm^2
Method: The rats were randomly divided into 2 groups. Control group was instilled with vehicle (30% HP-β-CD solution). […] Both eyes of all rats were instilled with 1 drop of ophthalmic solutions 3 times a day for 1 week before and 4 weeks after laser induced injury. The rats were anesthetized for all procedures with intramuscular injection of ketamine (35 mg/kg) and xylazine (5 mg/kg). The pupils were dilated with one drop each of 10 mg/ml atropine, and 25 mg/ml phenylephrine. The fundus was visualized by the VOLK super Pupil XL Biomicroscopy Lens (Keeler Instruments Inc., Broomall, Pa., USA). A double frequency Nd:YAG laser (Laserex LP3532; Lumenis Inc., Salt Lake City, Utah, USA) was used at 532 nm wavelength. Laser parameters were used by 100 μm spot size, 0.15-second exposure and 150-200 mw powers. Five laser spots were made to the ocular fundus at approximately equal distances around the optic nerves. […] Only laser spots with bubble formation were included in the study. Lesions with subretinal hemorrhage were excluded. Fluorescein angiography (FA) was performed after 2 and 4 weeks laser treatment with a digital fundus camera (TRC-50EX; TOPCON, Tokyo, Japan). 100 mg/ml fluorescein sodium salt was injected (0.5 ml/kg) through hypoglossal vein. Both early (under 2 minutes) and late (over 7 minutes) fluorescein phases were captured. […]

[3] = test system: rat's retinal function after ischemic insult; assay: b-wave recovery of retinal function after ischemic insult (ERG); format: in vivo; settings: 1% instilled topically
Method: The retinal ischemia experiment has been described previously (Chiou et al., J. Ocular Pharmacol. 9:179-185, 1993, and Chiou et al., J. Ocular Pharmacol. 10:493-498, 1994). Electroretinograms (ERG) were carried out to assess the retinal function prior to and after the ischemic insult. ERGs were recorded using Ag/AgCl electrodes placed in contact with the cornea. One stainless steel needle was inserted subcutaneously between the two eyes as a reference electrode, and another needle was inserted subcutaneously into the neck as a ground electrode. A photostimulator (Grass PS22 Flash) was used to produce flashes of light 5 inches from the eye, and the ERG potentials were recorded on a polygraph. The ERG system was purchased from LKC Technologies, Inc. (Gaithersburg, Md.). A single flash (10 msec) of white light stimuli was used to evoke ERG a- and b-waves. Peak b-wave amplitudes were measured from the trough of the a-wave to the peak of the b-wave.
Long-Evans rats (200-250 g), dark-adapted at least 2 hours, were anaesthetized intramuscularly with ketamine (35 mg/kg) plus xylazine (5 mg/kg). Half of the initial dose was administrated at one hour intervals to maintain adequate anesthesia. The pupils were dilated with 1% tropicamide (50 μl) for ERG experiments. Retinal ischemia was produced by occlusion of the central retina and posterior ciliary arteries using a ligature placed around the optic nerve and posterior ciliary artery. The ligature was drawn tightly through a micropipette tip placed at the base of the eyeball socket to occlude the retinal vessels for 30 min. After 30 min of retinal ischemia, the ligature was liberated and the retinal arteries allowed to reperfuse. ERGs were measured at 30, 60, 90, 120, 180 and 240 min thereafter. The compounds and vehicle were administered topically before occlusion of the central retinal arteries.

[4] = test system: ARPE-19 cells; assay: Hypoxia-induced damage in ARPE-19 cells (MTT); format: cell-based, human; settings: hypoxia 1% O2, 72 h
Method: as §1
MTT assay was used to measure the viability of ARPE-19 cells and HUVECs. 2×10^5 ARPE-19 cells or 5×10^4 HUVECs were seeded in 96-well plates (100 μl/well) and allowed to grow overnight. Negative control was prepared by adding 100 μl medium without cells. The cells were then treated with fresh medium with a compound of Formula (II) (“(II)”) (0.03, 0.1, 0.3, 1, 3 and 10 μg/ml) and/or oxidants (NaIO3, H2O2, t-BHP and NaN3) for 12, 24, or 72 hours (200 μl/well). The vehicle control group was treated with vehicle. 20 μl MTT (5 mg/ml) was added to wells, and incubated for another 4 h. After incubation, the medium was discarded and 100 μl DMSO was added to solubilize formazan produced from MTT by the viable cells. Absorbance was measured at 570 nm using a microplate reader (Bio-Rad Laboratories, Inc., CA). Cells viability was calculated according to the following formula: Viability of cells (%)=(absorbance in tested sample−absorbance in negative control)/(absorbance in vehicle control−absorbance in negative control)×100%. […]

[5] = Hypoxia-induced damage in HUVECs (MTT); format: cell-based, human; settings: human, HUVECs, 10 μg/ml, P<0.01, read-out: decrease of viability of HUVECs in hypoxic condition
Method: as §1, §2
(§3) Cells were allowed to attach overnight, and then exposed to (II) or vehicle under hypoxic condition for 72 h. Hypoxic conditions (1% O2, 5% CO2 and 94% N2) were maintained by using a temperature and humidity controlled environmental C-chamber by O2 and CO2 controllers (Proox Model 110 and Pro CO2 Model 120, Bio Spherix Ltd., Redfield, N.Y., USA) with N2 and CO2 gas sources.

[6] = test system: HUVECs; assay: Hypoxia-induced damage in HUVECs (MTT); format: cell-based, human; settings: 72 h
Method: as §1, §2, §3

[7] = test system: HUVECs; assay: NaIO3-induced injury in HUVECs (MTT); format: cell-based, human; settings: 3 and 10 μg/ml compound, 72 hours
Method: as §1, §2

[8] = test system: ARPE-19 cells; assay: H2O2-induced injury in ARPE-19 cells (MTT); format: cell-based, human; settings: 10 μg/ml compound, 24 hours
Method: as §1, §2

[9] = test system: ARPE-19 cells; assay: NaN3-induced injury in ARPE-19 cells (MTT); format: cell-based, human; settings: 0.03 μg/ml to 10 μg/ml compound, 72 hours
Method: as §1, §2

[10] = test system: ARPE-19 cells; assay: MTT assay, proliferation/cytotoxicity in ARPE-19 cells; format: cell-based, human; settings: 72 hours
Method: as §1, §2

potency in b-wave recovery [3]: about the same as 1% (I)
duration of drug action on b-wave recovery ([3]; after drug application): 120 min
SMILES: CC(C)=CCC/C(C)=C/Cc1c([C@@H]2CC(=O)c3c(cc(O)c(CC=C(C)C)c3O)O2)ccc(O)c1O [Formula (II)]
effect on proliferation of HUVECs ([1]; 0.03 μg/ml to 3 μg/ml): did not affect
inhibition at 10 µg/mL ([1]; Homo sapiens, HUVEC, 10 μg/ml): 92%
area of CNV formation [2]: significantly suppressed
effect on viability of ARPE-19 cells in hypoxic condition ([4]; 0.03 μg/ml to 3 μg/ml): no effect
reversal of injury induced by hypoxia in ARPE-19 cells ([4]; 10 μg/ml): 24%
cytotoxicity at 72 h, 10 μg/ml [5]: 97%
increase of viability of HUVECs in hypoxic condition ([6]; 0.03 μg/ml): 22%
increase of viability of HUVECs in hypoxic condition ([6]; 0.1 μg/ml): 19%
increase of viability of HUVECs in hypoxic condition ([6]; 0.3 μg/ml): 26%
effect on NaIO3-induced injury in HUVECs [7]: enhanced
reversal of H2O2-induced injury in ARPE-19 cells ([8]; 200 μM H2O2): 55%
reversal of H2O2-induced injury in ARPE-19 cells ([8]; 400 μM H2O2): 72%
effect on NaN3-induced injury in ARPE-19 cells [9]: significantly reversed
effect on proliferation of ARPE-19 cells ([10]; 0.03 μg/ml to 3 μg/ml): did not affect
inhibition at 10 µg/mL ([10]; Homo sapiens, ARPE-19, 10 μg/ml): 34%
